Columns and labels:
A549 = assay: Study of cytotoxicity (CellTiter-Blue, 72 hours); format: cell-based; details: Homo sapiens, A549; 72 hours of incubation; read-out: IC50 for different cell lines: A549
Method: (§1) The biological activity of the compounds of the invention was studied in vitro on 7 human cancer cell lines with different tissue origins (HCT116: colorectal carcinoma; K562: chronic myeloid leukemia; B16-F10: melanoma; U87: glioblastoma; A549: lung cancer and MDA-MB 231 and MDA-MB 435: breast cancer). The cells selected for the study were incubated at 37° C. in the presence of one of the compounds added into the culture medium at different concentrations. The whole of the conducted experiments allowed determination of the toxicity level of the tested compound, its effect on the course of the cell cycle as well as its capacity of inducing cell death by apoptosis.
(§2) The cancer cell lines originate from the American Type Culture Collection (Rockville, Md., USA) and were grown according to the recommendations of the supplier.
(§3) The cells A549, U87, MDA-MB231, MDA-MB435 and B16F10 were grown in a culture medium “Dulbecco minimal essential medium” (DMEM) containing 4.5 g/L of glucose and supplemented with 10% fetal calf serum and 1% glutamine. The K562 and HCT116 were grown in an RPMI 1640 medium containing 10% fetal calf serum and 1% glutamine. All the cell lines were maintained in the culture at 37° C. in a humid atmosphere containing 5% of CO2. Cell viability was evaluated by using the reagent “CellTiter-Blue™” (Promega, Wis., USA) while observing the instructions of the manufacturer. The cells were sown in 96-well culture plates with 5000 cells per well in 50 μL of culture medium. After 24 hours of culture, the compounds of general formula (I) dissolved in DMSO were individually added into each of the wells in an amount of 50 μl per well. All the compounds were tested in triplicate for each defined concentration and each experiment was repeated three times. After 72 hours of incubation, 20 μL of resazurin were added in each well. After 2 hours of incubation, the emitted fluorescence was measured at 590 nm after excitation at 560 nm by means of a fluorescence reader of the Victor type (Perkin-Elmer, USA).
(§4) The concentration of each of the compounds which induces the death of 50% of the cells (IC50) was determined after 72 hours of incubation. Certain compounds according to the invention have an IC50 of the order of one nanomolar concentration, therefore equivalent to CA-4 taken as a reference.

HCT116 = assay: Study of cytotoxicity (CellTiter-Blue, 72 hours); format: cell-based; details: Homo sapiens, HCT-116; 72 hours of incubation; read-out: IC50 for different cell lines: HCT116
Method: as §1, §2, §3, §4

K562 = assay: Study of cytotoxicity (CellTiter-Blue, 72 hours); format: cell-based; details: Homo sapiens, 72 hours of incubation, read-out: IC50 for different cell lines: K562
Method: as §1, §2, §3, §4

MDA-MB 231 = assay: Study of cytotoxicity (CellTiter-Blue, 72 hours); format: cell-based; details: Homo sapiens, MDA-MB-231; 72 hours of incubation; read-out: IC50 for different cell lines: M231
Method: as §1, §2, §3, §4

MDA-MB 435 = assay: Study of cytotoxicity (CellTiter-Blue, 72 hours); format: cell-based; details: Homo sapiens, MDA-MB-435; 72 hours of incubation; read-out: IC50 for different cell lines: M435
Method: as §1, §2, §3, §4

U87 = assay: Study of cytotoxicity (CellTiter-Blue, 72 hours); format: cell-based; details: Homo sapiens, U-87 MG; 72 hours of incubation; read-out: IC50 for different cell lines: U87
Method: as §1, §2, §3, §4

B16F10 = assay: Study of cytotoxicity (CellTiter-Blue, 72 hours); format: cell-based, human; details: Mus musculus, B16-F10; 72 hours of incubation; read-out: IC50 for different cell lines: B16F10
Method: as §1, §2
The cells A549, U87, MDA-MB231, MDA-MB435 and B16F10 were grown in a culture medium “Dulbecco minimal essential medium” (DMEM) containing 4.5 g/L of glucose and supplemented with 10% fetal calf serum and 1% glutamine. […] Cell viability was evaluated by using the reagent “CellTiter-Blue™” (Promega, Wis., USA) while observing the instructions of the manufacturer. […] After 2 hours of incubation, the emitted fluorescence was measured at 590 nm after excitation at 560 nm by means of a fluorescence reader of the Victor type (Perkin-Elmer, USA). […]

[1] = molecular target: T1, purified tubulin from pig brains (Sus scrofa, UniProt P02550+P02554); assay: Inhibition of polymerization of tubulin (turbidimetry); format: biochemical; details: pig brain tubulin, turbidimetry at 350 nm
T1 construct: from pig brains, where it forms 20-25% of the soluble proteins; from tissue; host or cells: pig brain
Method: Tests relating to the inhibition of polymerization of tubulin were carried out on compounds which had the best cytotoxic activities. These tests were carried out on purified tubulin by the Shelanski method (Shelanski, M. C.; Gaskin, F.; Cantor, C. R. Proc. Natl. Acad. Sci. USA, 1973, 70, 765-768) from pig brains, where it forms 20-25% of the soluble proteins. Purification method is based on temperature-dependent assembling-disassembling cycles. Polymerization of tubulin was tracked with turbidimetry according to the Gaskin method (Gaskin, F.; Cantor, C. R.; Shelanski, M. L. J. Bio. Mol. 1974, 89, 737) at a wavelength of 350 nm. The different samples were dissolved in DMSO and incubated for 10 minutes at 37° C. and then for 5 minutes at 0° C.
The CA-4 compound and DMSO were taken as references.
The tests have shown for these compounds an activity inhibiting polymerization of tubulin similar to the one of the reference compound CA-4 (of the order of only one micromolar concentration to a few tens of micromolar concentrations).

HCT116 cells = assay: Study of apoptosis (caspase-3/7 activity); format: cell-based, human; details: HCT116, 24 hours
Method: (§5) In order to specify whether the compound (I-1) causes cell death by apoptosis, the intracellular enzymatic activity of caspases 3 and 7 was evaluated in cultures of K562, HCT116 and MDA-MB 231 cells exposed for 24 hours to the action of the compound (I-1).
(§6) Apoptosis is measured by using the kit “Apo-one homogeneous caspase-3/7 assay” (Promega Co., WI, USA) by following the recommendations of the manufacturer. Briefly, the cells are sown in 96-well culture plates with 50,000 cells per well in 100 μL of culture medium. After 24 hours of incubation, the medium is replaced with 100 μL of culture medium containing different concentrations of the compound […] or 0.1% DMSO (negative control). After 24 hours of treatment, 100 μL of reagent containing the substrate of the caspase and the buffer of the reaction are added into each well. After 1 hour of incubation, the fluorescence emitted by the cell is measured at 527 nm with a microplate reader of the Victor type (Perkin-Elmer, USA).

K562 cells = assay: Study of apoptosis (caspase-3/7 activity); format: cell-based, human; details: K562, 24 hours
Method: as §5, §6

MDA-MB 231 cells = assay: Study of apoptosis (caspase-3/7 activity); format: cell-based, human; details: MDA-MB 231, 24 hours
Method: as §5, §6

T1 sequence (P02554 whole entry): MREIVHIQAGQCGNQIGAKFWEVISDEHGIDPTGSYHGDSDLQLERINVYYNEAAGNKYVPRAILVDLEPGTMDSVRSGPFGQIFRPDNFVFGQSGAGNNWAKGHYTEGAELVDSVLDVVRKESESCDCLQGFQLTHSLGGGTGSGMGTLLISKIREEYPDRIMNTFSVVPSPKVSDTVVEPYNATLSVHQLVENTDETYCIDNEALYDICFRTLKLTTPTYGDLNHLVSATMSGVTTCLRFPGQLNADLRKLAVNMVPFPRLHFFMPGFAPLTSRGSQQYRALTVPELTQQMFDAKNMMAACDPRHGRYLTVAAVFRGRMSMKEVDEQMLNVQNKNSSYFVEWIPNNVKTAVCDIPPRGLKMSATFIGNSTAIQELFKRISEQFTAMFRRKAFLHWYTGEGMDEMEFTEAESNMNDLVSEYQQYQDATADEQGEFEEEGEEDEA
T1 sequence (P02550 whole entry): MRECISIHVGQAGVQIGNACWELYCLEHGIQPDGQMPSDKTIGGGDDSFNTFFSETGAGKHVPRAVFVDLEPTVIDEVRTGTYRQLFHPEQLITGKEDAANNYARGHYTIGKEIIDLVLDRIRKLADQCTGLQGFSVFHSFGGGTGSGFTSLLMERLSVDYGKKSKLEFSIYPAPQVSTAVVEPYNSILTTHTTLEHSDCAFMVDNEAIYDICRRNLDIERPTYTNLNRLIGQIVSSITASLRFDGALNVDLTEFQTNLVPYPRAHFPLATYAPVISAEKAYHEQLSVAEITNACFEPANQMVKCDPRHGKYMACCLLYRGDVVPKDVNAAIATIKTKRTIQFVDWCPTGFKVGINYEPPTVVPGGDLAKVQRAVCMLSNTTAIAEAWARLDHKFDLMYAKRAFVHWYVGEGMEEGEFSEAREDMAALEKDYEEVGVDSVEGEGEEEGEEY

C=C(c1ccc(OC)c(O)c1)c1cc(OC)c(OC)c(OC)c1 [(I-1)]
IC50 (A549): 8 nM
IC50 (HCT116): 2 to 4 nM
IC50 (K562): 5 nM
IC50 (MDA-MB 231): 4 nM
IC50 (MDA-MB 435): 4.5 nM
IC50 (U87): 8 nM
IC50 (B16F10): 2 nM
IC50 [1]: 2200 nM
Induction of apoptosis (caspases 3 and 7) (HCT116 cells): strong induction of apoptosis
Induction of apoptosis (caspases 3 and 7) (K562 cells): strong induction of apoptosis
Induction of apoptosis (caspases 3 and 7) (MDA-MB 231 cells): strong induction of apoptosis
